The term IC50 denotes the point on the concentration scale where inhibition reaches its midpoint.

For 31 compounds, IC50 results are on record in patent publication US20240109853A1 (Shanghai Yao Yuan Biotechnology Co., Ltd., priority 2020, published 2024).

Assay [1] deals with ALPK1-dependent NFκB reporter gene activation in HEK293 cells stably expressing an NF-kB reporter (G9 cells). The assay is described as follows: NFκB gene reporter alkaline phosphatase assay. Format: cell-based. To be noted: read-out: NFkB assay IC50. The method in brief: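 Compounds, serially diluted, were added to attached HEK293-derived G9 reporter cells for 30 min prior to stimulation with the fluoro-heptose ADP agonist. Secreted alkaline phosphatase was quantified colorimetrically using pNPP.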

Assay [2] concerns the target ALPK1 (Homo sapiens (Human), UniProt Q96QP1). The assay is described as follows: ALPK1 in vitro kinase assay (HTRF of TIFA phosphorylation). It is filed as biochemical.

Read-outs that look alike come from different tables or passages of the source.

Chain of ALPK1 (Q96QP1 whole entry): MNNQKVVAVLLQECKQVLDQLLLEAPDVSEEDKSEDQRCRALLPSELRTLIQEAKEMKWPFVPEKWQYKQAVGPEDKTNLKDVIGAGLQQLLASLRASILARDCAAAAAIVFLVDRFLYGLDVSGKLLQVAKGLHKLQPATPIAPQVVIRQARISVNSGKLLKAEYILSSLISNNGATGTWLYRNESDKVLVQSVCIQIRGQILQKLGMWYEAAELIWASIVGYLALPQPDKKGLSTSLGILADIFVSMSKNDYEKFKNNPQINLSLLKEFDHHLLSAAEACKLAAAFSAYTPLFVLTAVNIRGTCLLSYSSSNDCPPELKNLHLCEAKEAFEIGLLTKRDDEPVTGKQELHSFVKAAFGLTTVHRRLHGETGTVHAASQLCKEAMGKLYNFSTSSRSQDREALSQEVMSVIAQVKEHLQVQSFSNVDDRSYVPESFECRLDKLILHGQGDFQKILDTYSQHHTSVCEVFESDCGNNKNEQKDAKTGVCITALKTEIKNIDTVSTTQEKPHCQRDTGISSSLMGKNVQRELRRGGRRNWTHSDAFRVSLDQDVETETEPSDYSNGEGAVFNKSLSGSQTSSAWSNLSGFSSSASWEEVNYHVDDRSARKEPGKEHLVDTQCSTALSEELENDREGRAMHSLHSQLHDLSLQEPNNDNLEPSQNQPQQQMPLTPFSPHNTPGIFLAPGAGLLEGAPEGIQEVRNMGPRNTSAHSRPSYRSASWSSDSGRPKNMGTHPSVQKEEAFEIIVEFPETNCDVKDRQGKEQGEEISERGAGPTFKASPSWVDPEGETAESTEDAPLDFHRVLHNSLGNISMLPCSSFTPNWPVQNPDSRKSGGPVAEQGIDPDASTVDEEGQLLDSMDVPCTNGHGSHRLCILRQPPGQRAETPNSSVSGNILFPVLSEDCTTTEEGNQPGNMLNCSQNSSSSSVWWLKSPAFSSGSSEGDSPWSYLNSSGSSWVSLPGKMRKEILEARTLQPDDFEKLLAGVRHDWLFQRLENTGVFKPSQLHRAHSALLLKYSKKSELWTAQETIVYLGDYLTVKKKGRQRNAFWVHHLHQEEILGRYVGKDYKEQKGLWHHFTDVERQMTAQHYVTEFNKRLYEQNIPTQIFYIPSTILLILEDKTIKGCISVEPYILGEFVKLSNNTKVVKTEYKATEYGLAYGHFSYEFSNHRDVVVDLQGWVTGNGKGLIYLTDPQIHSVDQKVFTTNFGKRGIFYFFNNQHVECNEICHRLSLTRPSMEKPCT

Regarding `C#CC(C)(c1ccc(Cl)cc1)c1csc(NC(=O)N2CCC(CO)CC2)n1` (centres unmarked) [Example A264, N-(4-(2-(4-chlorophenyl)but-3-yn-2-yl)thiazol-2-yl)-4-(hydroxymethyl)piperidine-1-carboxamide], the IC50 was 2810 nM in assay [1] (Homo sapiens, HEK293) and 1370 nM in assay [2].
With `COc1ccc(C(C)(C)c2csc(NC(=O)NCc3cnc(N4CCNCC4)nc3C)n2)cc1` [Example A223, 1-(4-(2-(4-methoxyphenyl)propan-2-yl)thiazol-2-yl)-3-((4-methyl-2-(piperazin-1-yl)pyrimidin-5-yl)methyl)urea], the IC50 in assay [1] (Homo sapiens, HEK293) was 760 nM; in assay [2], 49 nM.
With `COc1ccc(C(C)(C)c2csc(NC(=O)NCc3ccc(C(=O)NCCN)cc3)n2)cc1` [Example A218, N-(2-aminoethyl)-4-((3-(4-(2-(4-methoxyphenyl)propan-2-yl)thiazol-2-yl)ureido)methyl)benza-mide], the IC50 in assay [1] (Homo sapiens, HEK293) was determined as 6710 nM; in assay [2], 29 nM.
As to `COc1ccc(C(C)(C)c2csc(NC(=O)NCc3ccc(C(=O)NC4CCNCC4)cc3)n2)cc1` [Example A042, 4-((3-(4-(2-(4-methoxyphenyl)propan-2-yl)thiazol-2-yl)ureido)methyl)-N-(piperidin-4-yl)benzamide], the IC50 in assay [1] (Homo sapiens, HEK293) was 1000 nM; in assay [2], 15 nM.
With `CC(C)(c1ccc(Br)cc1)c1csc(NC(=O)NCc2cnc(N3CCNCC3)nc2)n1` [Example A088, 1-(4-(2-(4-bromophenyl)propan-2-yl)thiazol-2-yl)-3-((2-(piperazin-1-yl)pyrimidin-5-yl)methyl)urea compound with methane (1:1)], the IC50 in assay [1] (Homo sapiens, HEK293) was 1450 nM; in assay [2], 13 nM.
In the case of `CC(C)NC(=O)Nc1nc(C(C)(C)c2ccc(Br)cc2)cs1` [Example A125, 1-(4-(2-(4-bromophenyl)propan-2-yl)thiazol-2-yl)-3-isopropylurea], the half-inhibitory concentration (IC50) in assay [1] (Homo sapiens, HEK293) stood at 2800 nM; in assay [2], 28 nM.
Consider `CC(C)(c1ccc(Cl)c(F)c1)c1csc(NC(=O)NCc2ccc(N3CCNCC3)cc2)n1` [Example A031, 1-(4-(2-(4-chloro-3-fluorophenyl)propan-2-yl)thiazol-2-yl)-3-(4-(piperazin-1-yl)benzyl)urea], for which the IC50 in assay [1] (Homo sapiens, HEK293) worked out at 1450 nM; in assay [2], 345 nM.
Turning to `COc1ccc(C(C)(C)c2csc(NC(=O)NCCCCO)n2)cc1` [Example A128, 1-(4-hydroxybutyl)-3-(4-(2-(4-methoxyphenyl)propan-2-yl)thiazol-2-yl)urea], the IC50 in assay [1] (Homo sapiens, HEK293) amounted to 530 nM; in assay [2] it was 146 nM.
With `Cc1sc(NC(=O)NCc2ccc(N3CCNCC3)cc2)nc1C(C)(C)c1ccc(Br)cc1` [Example A030, 1-(4-(2-(4-bromophenyl)propan-2-yl)-5-methylthiazol-2-yl)-3-(4-(piperazin-1-yl)benzyl)urea], the IC50 stood at 4110 nM in assay [1] (Homo sapiens, HEK293) and 232 nM in assay [2].
For `CC(C)(c1ccc(Br)cc1)c1csc(NC(=O)NCCS(C)(=O)=O)n1` [Example A066, 1-(4-(2-(4-bromophenyl)propan-2-yl)thiazol-2-yl)-3-(2-(methylsulfonyl)ethyl)urea], in that order: 10500 nM and 126 nM.
Turning to `C#C[C@](C)(c1ccc(Cl)cc1)c1csc(NC(=O)NC[C@@H](O)CO)n1` [Example A301, 1-(4-(2-(4-chlorophenyl)but-3-yn-2-yl)thiazol-2-yl)-3-((R)-2,3-dihydroxypropyl)urea], the IC50 in assay [1] (Homo sapiens, HEK293) was 2220 nM; in assay [2], 354 nM.
The matching figures for `CC(C)(c1ccc(Br)cc1)c1csc(NC(=O)NCc2ccc(N3CCNC(=O)C3)cc2)n1` [Example A195, 1-(4-(2-(4-bromophenyl)propan-2-yl)thiazol-2-yl)-3-(4-(3-oxopiperazin-1-yl)benzyl)urea]: 9940 nM and 132 nM.
Take `CC(C)(c1ccc(Br)cc1)c1csc(NC(=O)NCCCN)n1` [Example A061, 1-(3-aminopropyl)-3-(4-(2-(4-bromophenyl)propan-2-yl)thiazol-2-yl)urea]: the half-maximal inhibitory concentration (IC50) in assay [1] (Homo sapiens, HEK293) was 1990 nM; in assay [2], 195 nM.
For `CC(C)(c1ccc(Br)cc1)c1csc(NC(=O)NCc2ccc(OCCCN3CCNCC3)cc2)n1` [Example A035, 1-(4-(2-(4-bromophenyl)propan-2-yl)thiazol-2-yl)-3-(4-(3-(piperazin-1-yl)propoxy)benzyl)urea], the half-maximal inhibitory concentration (IC50) in assay [1] (Homo sapiens, HEK293) was determined as 2030 nM; in assay [2], 52 nM.
For the compound `COc1ccc(C(C)(C)c2csc(NC(=O)NCCN3CCC(N)C3)n2)cc1` (centres unmarked) [Example A227, 1-(2-(3-aminopyrrolidin-1-yl)ethyl)-3-(4-(2-(4-methoxyphenyl)propan-2-yl)thiazol-2-yl)urea], the IC50 in assay [1] (Homo sapiens, HEK293) came to 3120 nM; in assay [2], 138 nM.
For `Cc1cc(CNC(=O)Nc2nc(C(C)(C)c3ccc(Br)cc3)cs2)ccc1N1CCNCC1` [Example A096, 1-(4-(2-(4-bromophenyl)propan-2-yl)thiazol-2-yl)-3-(3-methyl-4-(piperazin-1-yl)benzyl)urea], in that order: 1430 nM and 69 nM.
For `COc1ccc(C(C)(C)c2csc(NC(=O)NCc3cnc(N4CCC(C(N)=O)CC4)nc3)n2)cc1` [Example A215, 1-(5-((3-(4-(2-(4-methoxyphenyl)propan-2-yl)thiazol-2-yl)ureido)methyl)pyrimi-din-2-yl)piperidine-4-carboxamide], the IC50 in assay [1] (Homo sapiens, HEK293) worked out at 2210 nM; in assay [2], 150 nM.
Consider `C#C[C@@](C)(c1ccc(Br)cc1)c1csc(NC(=O)N2CC(CO)C2)n1` [Example A167, (S)-N-(4-(2-(4-bromophenyl)but-3-yn-2-yl)thiazol-2-yl)-3-(hydroxymethyl)azetidine-1-carboxamide], for which the IC50 in assay [1] (Homo sapiens, HEK293) was found to be 740 nM; in assay [2], 7 nM.
Consider `COc1ccc(C(C)(C)c2csc(NC(=O)NCc3cc(F)c(N4CCC(N)C4)c(F)c3)n2)cc1` (centres unmarked) [Example A201, 1-(4-(3-aminopyrrolidin-1-yl)-3,5-difluorobenzyl)-3-(4-(2-(4-methoxyphenyl)propan-2-yl)thiazol-2-yl)urea], for which the IC50 in assay [1] (Homo sapiens, HEK293) stood at 530 nM; in assay [2] it was 25 nM.
With `CC(C)(c1ccc(Br)cc1)c1csc(NC(=O)NCc2ccc(N3CCC(N)C3)nc2)n1` (centres unmarked) [Example A189, 1-((6-(3-aminopyrrolidin-1-yl)pyridin-3-yl)methyl)-3-(4-(2-(4-bromophenyl)propan-2-yl)thiazol-2-yl)urea], the IC50 in assay [1] (Homo sapiens, HEK293) was 2310 nM; in assay [2], 41 nM.
Take `CC(C)(c1ccc(Br)cc1)c1csc(NC(=O)NCc2ccc(NCCN)c(F)c2)n1` [Example A198, 1-(4-((2-aminoethyl)amino)-3-fluorobenzyl)-3-(4-(2-(4-bromophenyl)propan-2-yl)thiazol-2-yl)urea]: the IC50 in assay [1] (Homo sapiens, HEK293) turned out to be 1320 nM; in assay [2] it was 18 nM.
As to `CC(C)(c1ccc(Br)cc1)c1csc(NC(=O)NCc2ccc(NCCO)cc2)n1` [Example A108, 1-(4-(2-(4-bromophenyl)propan-2-yl)thiazol-2-yl)-3-(4-((2-hydroxyethyl)amino)ben-zyl)urea], the IC50 was 820 nM in assay [1] (Homo sapiens, HEK293) and 244 nM in assay [2].
As for `Cc1ccc(C(C)(C)c2csc(NC(=O)NCc3ccc(N4CCNCC4)cc3)n2)cc1` [Example A075, 1-(4-(piperazin-1-yl)benzyl)-3-(4-(2-(p-tolyl)propan-2-yl)thiazol-2-yl)urea], the concentration for half-maximal inhibition (IC50) in assay [1] (Homo sapiens, HEK293) was determined as 267 nM; in assay [2], 25 nM.
As for `COc1ccc(C(C)(C)c2csc(NC(=O)NCc3cnc(N4CCC(N(C)C)C4)nc3)n2)cc1` (centres unmarked) [Example A012, 1-((2-(3-(dimethylamino)pyrrolidin-1-yl)pyrimidin-5-yl)methyl)-3-(4-(2-(4-methoxyphenyl)propan-2-yl)thiazol-2-yl)urea], the concentration for half-maximal inhibition (IC50) was found to be 2210 nM in assay [1] (Homo sapiens, HEK293) and 40 nM in assay [2].
Take `CC(C)(c1ccc(Br)cc1)c1csc(NC(=O)NCc2cnc(N3CCNCC3)c(F)c2)n1` [Example A038, 1-(4-(2-(4-bromophenyl)propan-2-yl)thiazol-2-yl)-3-((5-fluoro-6-(piperazin-1-yl)pyridin-3-yl)methyl)urea]: the half-maximal inhibitory concentration (IC50) in assay [1] (Homo sapiens, HEK293) worked out at 1660 nM; in assay [2], 30 nM.
In the case of `C#CC(C)(c1ccc(Br)cc1)c1csc(NC(N)=O)n1` (stereo in doubt) [Example A163, (S)-1-(4-(2-(4-bromophenyl)but-3-yn-2-yl)thiazol-2-yl)urea], the 50% inhibitory concentration (IC50) in assay [1] (Homo sapiens, HEK293) was 350 nM; in assay [2], 4 nM.
Regarding `CC(C)(c1ccc(Br)cc1)c1csc(NC(=O)NCc2ccc(NCCN)cc2)n1` [Example A205, 1-(4-((2-aminoethyl)amino)ben-zyl)-3-(4-(2-(4-bromophenyl)propan-2-yl)thiazol-2-yl)urea], the 50% inhibitory concentration (IC50) in assay [1] (Homo sapiens, HEK293) is 1480 nM; in assay [2], 59 nM.
For the compound `COc1ccc(C(C)(C)c2csc(NC(=O)NCCCN3CCC(N(C)C)C3)n2)cc1` (centres unmarked) [Example A141, 1-(3-(3-(dimethylamino)pyrrolidin-1-yl)propyl)-3-(4-(2-(4-methoxyphenyl)propan-2-yl)thiazol-2-yl)urea], the half-inhibitory concentration (IC50) in assay [1] (Homo sapiens, HEK293) stood at 4220 nM; in assay [2], 228 nM.
For `C#C[C@@](C)(c1ccc(Cl)cc1)c1csc(NC(=O)NC2(CO)CC2)n1` [Example A295, 1-(4-(2-(4-chlorophenyl)but-3-yn-2-yl)thiazol-2-yl)-3-(1-(hydroxymethyl)cyclopro-pyl)urea], in that order: 1790 nM and 522 nM.
With `COc1ccc(C(C)(C)c2csc(NC(=O)NCc3ccc(C(=O)NC4CCN(C)CC4)nc3)n2)cc1` [Example A015, 5-((3-(4-(2-(4-methoxyphenyl)propan-2-yl)thiazol-2-yl)ureido)methyl)-N-(1-methylpiperidin-4-yl)picolinamide], the half-maximal inhibitory concentration (IC50) in assay [1] amounted to 880 nM; in assay [2], 24 nM.
With `CC(C)(c1ccc(Br)cc1)c1csc(NC(=O)NCc2cnc(NCCN)nc2)n1` [Example A081, 1-((2-((2-aminoethyl)amino)pyri-midin-5-yl)methyl)-3-(4-(2-(4-bromophenyl)propan-2-yl)thiazol-2-yl)urea], the 50% inhibitory concentration (IC50) in assay [1] (Homo sapiens, HEK293) is 1840 nM; in assay [2] it was 17 nM.
